In PMC9845330 (Communications Biology, 2023):
Non-standard residues stand in square brackets, D forms with d. Residues, ends and D or L forms follow the SMILES beside them. *: point of attachment. X1 = O=C(CCCC[C@@H]1SC[C@@H]2NC(=O)N[C@@H]21)NCCCOCCOCCOCCCN*; PEG12 = NCCOCCOCCOCCOCCOCCOCCOCCOCCOCCOCCOCCOCCC(=O)O

Columns and labels:
H1299 xenograft tumor = assay: Tumor homing by near infrared imaging; format: in vivo, mouse
Text: Animal experiments were approved by SRI International’s Institutional Animal Care and Use committee (Animal Welfare Assurance Number A3025-01, protocol 14008). H2009 cells (10^6) or H1299 cells (10^6) were implanted subcutaneously on the flank of female Nu/Nu mice (Jackson Laboratory, Bar Harbor, ME). When tumors reached 100 mm^3, in vivo experiments were initiated. For imaging, the indicated peptides were conjugated directly to Alexa Fluor 750 near-infrared dye (Supplemental Fig. 1). Four animals per group were used. Peptides were injected into the lateral tail vein for a total dose 15 µgs/mouse delivered in 100 µL. At set period of times, animals were anesthetized and imaged on an IVIS® (Perkin Elmer). Regions of interest were drawn around the tumor and the total radiant efficiency was measured. For therapeutic experiments, we chose to use the H2009 tumor model as it has a higher tumor take rate and more consistent growth rate than the H1299 model. Biotinylated MGS4_V8 (N = 9) or MGS4_V6 (N = 8) were conjugated to streptavidin-saporin and administered via tail-vein injection (7.5 µg/100 µl) 2x/week for 2.5 weeks for a total of 5 treatments. Nontreated animals (N = 8) served as the control. Tumor size was measured with calipers every other day and volume was calculated as (π/6)(l*w)^3/2. Statistical analysis was performed on GraphPad Prism®.
Supplemental Figure 1. […]
-Qdot605, streptavidin-R- phycoerythrin, and streptavidin-saporin. b) For NIR imaging experiments, Alexa Fluor 750 was directly conjugated to the peptide by the reaction of maleimide modified dye with a thiol containing MGS4_V8 peptide. c ) The structure of the monomeric MGS4 used for serum stabilities. […]
Supplemental Figure 5. MGS4_V8 homes to H12 99 xenograft tumor after systemic delivery.
H1299 tumor bearing nude mice ( N=4 ) were injected I.V. with MGS4_V8 or MGS4_V6 conjugated to NIR dye Alexa Fluor 750. At 24, 48, and 72 hours post injection, mice were anesthetized and imaged on an IVIS® (Perkin E lme r ) to measure total radiant efficiency in each tumor. MGS4_V8 accumulates in tumor ≈3-fold better than control peptide, MGS4_V6. MGS4_V6 accumulation is statistically no different than […]
untreated tumo rs. […]
A standard curve was generated using Quantum ™ Alexa Fluor 647 microspheres (Bangs Laboratory, Fishers, IN). A representative linear regression showing the correlation of molecule equivalents soluble fluorophores (MESF) vs the mean fluorescence intensity (MFI) is shown. The MFI is determined at 50% […]
Supplemental Figure 7. Example of flow cytometry data: MGS4_V10 Uptake on H1993 Cells .
The gating strategy, cell population data , and MFI determination for an example binding experiment is shown. Cells were gated by forward and side scatter to exclude nonviable cells or cell clusters as shown.
Individual dot plots and histograms are shown for a concentration range of 0.1 nM – 50 nM. The MFI is determined at 50% peak height. Molecules internalized per cell were determined by the standard curve relating MESF to MFI and divided by the number dye molecules/MGS conjugate.

H1299 cells = assay: Cell binding and internalization by flow cytometry, relative (normalized) uptake of peptide-streptavidin-phycoerythrin; format: cell-based, human
Procedure: MGS4 was initially selected by phage display biopanning of a peptide library on live cells. […] As such, multivalent binding is often required. To ascertain whether multivalent binding is required for MGS4 internalization, monomeric (MGS4_V2) and tetrameric (MGS4_V1) peptides were synthesized and labeled as described (Supplementary Figure 1). After incubation of varying peptide concentrations on live cells, surface-bound peptide was removed by low pH washes, as well as trypsinization. Relative internalization was measured by flow cytometry to determine an EC50 value which represents the concentration of peptide producing half-maximal internalization. This measurement is dependent on the affinity of the peptide for its cellular target and the rate of internalization. This is a more accurate representation of the biological situation and useful in evaluating the peptides as drug delivery agents. As expected for receptor-mediated endocytosis, uptake of MGS4 is saturable with increasing concentration.
Fig. 1 Monomeric and tetrameric MGS4 have similar binding, internalization and subcellular location. a Binding and internalization of tetrameric MGS4_V1 and monomeric MGS4_V2 on live H1299 cells in culture. Cells were incubated with the peptide conjugated to streptavidin-phycoerythrin for 1 h at 37 °C. Non-internalized peptide was removed and the cells were analyzed by flow cytometry. b H1299 cells were incubated with MGS4_V1 or MGS4_V2 conjugated to streptavidin-Alexa Fluor 555 (red) for 1 h, washed, fixed and counterstained with WGA-Alexa Fluor 488 (green, cell membrane) and DAPI (blue, nuclei) and analyzed by fluorescence microscopy. The scale bar represents 20 µm. MGS4_V1 and MGS4_V2 internalize to a similar degree and localize to a similar destination. c Truncated monomeric MGS4 peptides have similar EC50 as the parental full-length peptide. Individual measurements are shown. The mean is shown as an “X” and black error bars represent standard error for a minimum of three experimental replicates (SEM). All original binding data and nonlinear regression analysis of the data are included in the supplementary materials.
Biotinylated peptide was conjugated to streptavidin-R-phycoerythrin or streptavidin-Alexa Fluor 647 (1:1 molar ratio) for 30 min. The open binding sites on streptavidin were quenched with RPMI 1640 and diluted to the indicated concentration. Tumor cells were grown to 90% confluency in a 12 well plate, then incubated with 500 µl peptide-dye conjugate at 37 °C. After 1 h, peptide was removed, and the cells were washed 3x with PBS (137 mM NaCl, 2.7 mM KCl, 10 mM Na2HPO4, 1.8 mM KH2PO4, pH 7.4), 2x with 0.1 M HCl-glycine pH2.2 in 0.9% NaCl, and 1x PBS rinse. Cells were removed by trypsinization. Flow cytometry was performed on a BD FACSCelesta, and data were analyzed on Flowing software. Cells were gated based on the forward and side scatter to include only viable cells and a minimum of 10,000 events were counted. A region containing <5% of the cells in the negative control was established, and relative peptide uptake by the mean fluorescence intensity of that population. For absolute peptide uptake per cell, a standard curve was generated using Quantum™ Alexa Fluor 647 microspheres (Bangs Laboratory, Fishers, IN). A representative linear regression showing the correlation of molecule equivalents soluble fluorophores (MESF) vs the mean fluorescence intensity (MFI) is shown in Supplemental Figure 6. Cells were gated based on the forward and side scatter to include only viable cells and a minimum of 10,000 events were counted. MFI was determined at 50% at peak height. Molecules internalized per cell were determined by the standard curve relating MESF to MFI and divided by the number dye molecules/MGS conjugate. An example is shown in supplemental Figure 7. GraphPad Prism® was used for non-linear regression curve fitting to calculate an EC50. […]

Molecule | Total Radiant Efficiency (H1299 xenograft tumor; 24 h, Mouse 1) | Total Radiant Efficiency (H1299 xenograft tumor; 24 h, Mouse 2) | Total Radiant Efficiency (H1299 xenograft tumor; 24 h, Mouse 3) | Total Radiant Efficiency (H1299 xenograft tumor; 24 h, Mouse 4) | Total Radiant Efficiency (H1299 xenograft tumor; 48 h, Mouse 1) | Total Radiant Efficiency (H1299 xenograft tumor; 48 h, Mouse 2) | Total Radiant Efficiency (H1299 xenograft tumor; 48 h, Mouse 3) | Total Radiant Efficiency (H1299 xenograft tumor; 48 h, Mouse 4) | Total Radiant Efficiency (H1299 xenograft tumor; 72 h, Mouse 1) | Total Radiant Efficiency (H1299 xenograft tumor; 72 h, Mouse 2) | Total Radiant Efficiency (H1299 xenograft tumor; 72 h, Mouse 3) | Total Radiant Efficiency (H1299 xenograft tumor; 72 h, Mouse 4) | fold tumor accumulation versus control peptide MGS4_V6 (H1299 xenograft tumor; H1299 tumors, 24-72 h, Alexa Fluor 750 conjugate, N=4) | Bmax (best-fit) (H1299 cells; Supplementary Table 2, normalized binding) | EC50 (nM) (H1299 cells; H1299 cells, 1 h at 37 °C, normalized uptake, one-site specific binding fit, Average ± SEM, minimum 3 replicates)
CC(=O)N[C@@H](Cc1ccccc1)C(=O)N[C@@H](Cc1c[nH]cn1)C(=O)N[C@@H](C)C(=O)N[C@H](C(=O)N1CCC[C@H]1C(=O)N[C@@H](CCC(N)=O)C(=O)N[C@@H](CO)C(=O)N[C@@H](Cc1ccccc1)C(=O)N[C@@H](Cc1ccc(O)cc1)C(=O)N[C@H](C(=O)NCCOCCOCCOCCOCCOCCOCCOCCOCCOCCOCCOCCOCCC(=O)N[C@@H](CCC(=O)NCCCOCCOCCOCCCNC(=O)CCCC[C@@H]1SC[C@@H]2NC(=O)N[C@@H]21)C(N)=O)[C@@H](C)O)C(C)C [MGS4_V8] (Ac-FHAVPQSFYT[PEG12]E(X1)-NH2) | 1.32e+009 | 1.83e+009 | 9.57e+008 | 2.96e+009 | 9.13e+008 | 9.76e+008 | 7.72e+008 | 1.71e+009 | 9.42e+008 | 7.37e+008 | 1.06e+009 | 1.35e+009 | ≈ 3 fold | 1.423 | 
*HAVPQSFYT** [MGS4_V6] | 7.74e+008 | 4.6e+008 | 7.58e+008 | 3.13e+008 | 5.44e+008 | 3.19e+008 | 3.39e+008 | 3.19e+008 | 5.46e+008 | 3.28e+008 | 3.61e+008 | 4.28e+008 |  |  | Not Detected^2
